Results on 5 compounds are retold here after paper PMC6021035, “Insights into biological activity of ureidoamides with primaquine and amino acid moieties” (Journal of Enzyme Inhibition and Medicinal Chemistry, 2018).

By MIC is commonly meant the lowest concentration found to suppress growth.

Test [1] in a line: Interaction with 1,1-diphenyl-2-picrylhydrazyl (DPPH). The conditions noted are these: 100 μΜ. On the procedure: To a solution of DPPH in absolute ethanol, an appropriate volume of the tested compound solution (0.1 mM final concentration) dissolved in DMSO was added. Absorbance was recorded at 517 nm after 20 and 60 min at room temperature (Lambda 20 double beam spectrophotometer, Perkin-Elmer, UK). Experiments were repeated at least in triplicate and the standard deviation of absorbance was less than 10% of the mean[10]. NDGA was used under the same experimental conditions as a reference compound.

In test [2] the test system is Bacillus cereus ATCC 11778. The experiment in a line: MIC determination (broth micro-dilution). It counts as cell-based. The conditions noted are these: ATCC11778. On the procedure:
(§1) Before analysis, compounds 5a–f were dissolved in 96% ethanol in a concentration of 2 mg/ml as stock solutions. Inoculums were prepared with fresh cultures of microbial strains, cultured on tryptic-soy agar or Sabouraud 2% (m/v) dextrose agar for 18 h (48–72 h for fungi) at 30 °C with physiological saline containing approximately […]. Inoculum density (0.5 McFarland units) was adjusted with a bio Mériex (France) densitometer. Minimum inhibitory concentration (MIC) was determined by the twofold micro-dilution method in Mu¨ller–Hinton broth for bacterial strains and RPMI 1640 + 2% m/v dextrose for fungi according to the EUCAST recommendations in a sterile 96-well flat-bottom plastic tissue culture plate. MIC was determined using a linear regression curve after incubation of compounds and reading the optical density at 570 nm using an iEMS microplate reader. […] All tests were performed in triplicate and expressed as the mean.
For orientation: In broth dilution the organism is exposed to a series of concentrations in liquid medium.

Test [3] relates to Enterococcus hyrae ATCC 8043. The test is described as follows: MIC determination (broth micro-dilution). The conditions noted are these: ATCC8043. It counts as cell-based. The method, then: as §1
For test [4], the system named is Staphylococcus aureus ATCC 25923. The experiment in a line: MIC determination (broth micro-dilution). The conditions noted are these: ATCC25923. It counts as cell-based. On the procedure: as §1
In test [5] the test system is Enterococcus faecalis ATCC 29212. The test is described as follows: MIC determination (broth micro-dilution). As to conditions: ATCC29212. It is filed as cell-based. The method, then: as §1
The test system of test [6] is Pseudomonas aeruginosa ATCC 27853. The test is described as follows: MIC determination (broth micro-dilution). It is filed as cell-based. The conditions noted are these: ATCC27853. The method, then:
as §1

The subject of test [7] is Pseudomonas aeruginosa ATCC 9027. The experiment in a line: MIC determination (broth micro-dilution). It is filed as cell-based. The conditions noted are these: ATCC9027. The method, then: as §1
Test [8] concerns Escherichia coli ATCC 10536. The experiment in a line: MIC determination (broth micro-dilution). It counts as cell-based. The conditions noted are these: ATCC10536. On the procedure:
as §1

Test [9] has as its system Kocuria rhizophila ATCC 9341. The test is described as follows: MIC determination (broth micro-dilution). It is filed as cell-based. The conditions noted are these: ATCC9341. On the procedure:
as §1

The test system of test [10] is Burkholderia caepacia ATCC 25416. The test is described as follows: MIC determination (broth micro-dilution). As to conditions: ATCC25416. It counts as cell-based. The method, then: as §1
The test system of test [11] is Candida parapsylosis ATCC 22019. The test is described as follows: MIC determination (broth micro-dilution). It is filed as cell-based. As to conditions: ATCC22019. The method, then:
as §1

For test [12], the system named is Staphylococcus aureus ATCC 6538. The test is described as follows: MIC determination (broth micro-dilution). It is filed as cell-based. As to conditions: ATCC6538. On the procedure:
as §1

In test [13] the test system is Staphylococcus aureus ATCC 25213. The experiment in a line: MIC determination (broth micro-dilution). As to conditions: ATCC25213. It is filed as cell-based. On the procedure: as §1
Test [14] deals with Bacillus subtilis ATCC 6633. The experiment in a line: MIC determination (broth micro-dilution). The conditions noted are these: ATCC6633. It counts as cell-based. The method, then: as §1
In test [15] the test system is Escherichia coli ATCC 8739. The experiment in a line: MIC determination (broth micro-dilution). It is filed as cell-based. The conditions noted are these: ATCC8739. On the procedure:
as §1

For test [16], the system named is Enterococcus faecalis ATCC 29212. The test is described as follows: Minimum biofilm eradication assay. It counts as cell-based. The method, then: (§2) We tested the susceptibility of different bacterial and yeast strains to compounds 5a–f by determining the minimum biofilm eradication concentration (MBEC). The test was performed in a sterile 96-well flat-bottom plastic tissue culture plate (TPP, Switzerland). Each well was filled with 100 µl of bacterial (10^7 CFUs/ml) or yeast (5 × 10^6 CFUs/ml) suspension. When the possibility of inhibition of yeast biofilm formation was tested, the wells were pre-treated with FBS (250 µl per well). Negative controls contained broth only. Positive controls were performed using standard antibacterial and antifungal drugs gentamycin and amphotericin B, respectively. The plates were covered and incubated aerobically for 24 h (bacteria) or 48 h (yeast) at 37 °C. Following the incubation period, each well was aspirated and washed three times with 250 µl of PBS and vigorously shaken in order to remove all non-adherent bacteria/yeast. The remaining attached cells were fixed with methanol (15 min) and the plates were left to dry overnight. The formed biofilm was stained with crystal violet (1%, 5 min). Excess stain was rinsed by placing the plate under running tap water and the plates were left to dry for 24 h. Adherent cells were resolubilized with acetic acid (33%, v/v). The optical density of each well was measured at 570 nm using a Multiscan plate reader. The MBEC value represents the lowest compound dilution at which microorganisms fail to grow.

Test [17] relates to Pseudomonas aeruginosa ATCC 27853. The test is described as follows: Minimum biofilm eradication assay. It counts as cell-based. The method, then:
as §2

Test [18] concerns Pseudomonas aeruginosa ATCC 9027. The experiment in a line: Minimum biofilm eradication assay. It is filed as cell-based. On the procedure: as §2
Test [19] concerns Escherichia coli ATCC 10536. The experiment in a line: Minimum biofilm eradication assay. It is filed as cell-based. On the procedure: as §2
In test [20] the test system is Candida parapsylosis ATCC 22019. The experiment in a line: Minimum biofilm eradication assay. It is filed as cell-based. The method, then: as §2
The test system of test [21] is Staphylococcus aureus ATCC 6538. The test is described as follows: Minimum biofilm eradication assay. It is filed as cell-based. On the procedure: as §2
The test system of test [22] is Staphylococcus aureus ATCC 25213. The test is described as follows: Minimum biofilm eradication assay. It is filed as cell-based. On the procedure: as §2
The test system of test [23] is Escherichia coli ATCC 8739. The experiment in a line: Minimum biofilm eradication assay. It counts as cell-based. On the procedure:
as §2

For another test, the system named is E. coli (both strains). The experiment in a line: Minimum biofilm eradication assay, E. coli both strains. It is filed as cell-based, Escherichia coli. The method, then:
as §2, with “The MBEC value represents the lowest compound dilution at which microorganisms fail to grow.” left out

A short description of test [24]: Inhibition of linoleic acid peroxidation (LP), AAPH-initiated. Set-up: tested at 100 µM. As to conditions: 100 μΜ, 37 °C. The method, then:
To initiate lipid peroxidation, the free radical AAPH was used[10]. The final solution in the UV cuvette consisted of 10 µl sodium linoleate solution (c = 16 mM) and 0.93 ml phosphate buffer pH 7.4 (c = 50 mM). Afterwards, 10 µl of the tested compound solution in DMSO (final concentration 0.1 mM) and 50 µl of AAPH solution (c = 40 mM) were added. The experiment was performed at 37 °C under air. Oxidation of linoleic acid sodium salt was monitored at 234 nm. The assay was repeated at least in triplicate and the standard deviation of absorbance was less than 10% of the mean. Trolox was used under the same experimental conditions as a reference compound.

Test [25] deals with Candida albicans ATCC 10231. The test is described as follows: Minimum biofilm eradication assay. It counts as cell-based. As to conditions: ATCC10231, 48 h, read-out: MBEC. The method, then: as §2
For test [26], the system named is Candida kefyr ATCC 2512. The test is described as follows: Minimum biofilm eradication assay. It is filed as cell-based. The conditions noted are these: Kluyveromyces marxianus, ATCC2512, 48 h, read-out: MBEC. On the procedure: as §2
The test system of test [27] is Candida tropicalis ATCC 750. The experiment in a line: Minimum biofilm eradication assay. It is filed as cell-based. The conditions noted are these: ATCC750, 48 h, read-out: MBEC. The method, then:
as §2

Test [28] has as its system Candida albicans ATCC 90028. The experiment in a line: Minimum biofilm eradication assay. It counts as cell-based. The conditions noted are these: ATCC90028, 48 h, read-out: MBEC. On the procedure: as §2
Test [29] relates to Candida krusei ATCC 14243. The experiment in a line: Minimum biofilm eradication assay. It is filed as cell-based. The conditions noted are these: Pichia kudriavzevii, ATCC14243, 48 h, read-out: MBEC. The method, then:
as §2

Test [30] deals with Candida albicans ATCC 10231. The test is described as follows: MIC determination (broth micro-dilution). It is filed as cell-based. The conditions noted are these: ATCC10231. The method, then: as §1
Test [31] deals with Issatchenkia orientalis Kudrjanzev ATCC 6258. The test is described as follows: MIC determination (broth micro-dilution). It is filed as cell-based. As to conditions: Pichia kudriavzevii, ATCC6258. On the procedure:
as §1

The test system of test [32] is Candida kefyr ATCC 2512. The experiment in a line: MIC determination (broth micro-dilution). It counts as cell-based. As to conditions: Kluyveromyces marxianus, ATCC2512. On the procedure: as §1
In test [33] the test system is Candida tropicalis ATCC 750. The test is described as follows: MIC determination (broth micro-dilution). It is filed as cell-based. As to conditions: ATCC750. The method, then: as §1
Test [34] relates to Candida albicans ATCC 90028. The experiment in a line: MIC determination (broth micro-dilution). It counts as cell-based. As to conditions: ATCC90028. On the procedure:
as §1

Test [35] concerns Candida krusei ATCC 14243. The experiment in a line: MIC determination (broth micro-dilution). It is filed as cell-based. As to conditions: Pichia kudriavzevii, ATCC14243. On the procedure: as §1
The test system of test [36] is Aspergillus niger ATCC 16404. The experiment in a line: MIC determination (broth micro-dilution). It counts as cell-based. The conditions noted are these: ATCC16404. On the procedure:
as §1

Values after ≈ are worked out from the molar mass of the structure shown.

For `CC(Cc1ccc(O)c(O)c1)C(C)Cc1ccc(O)c(O)c1` (centres unmarked) [NDGA, nordihydroguaiaretic acid, reference compound], the “DPPH-reducing ability 20 min” value in [1] (20 min) is 83.0 ± 1.0%. Besides, the “DPPH-reducing ability 60 min” value in test [1] (60 min) worked out at 91.0 ± 1.7%.

Consider `CN(C)[C@@H]1C(O)=C(C(N)=O)C(=O)[C@@]2(O)C(O)=C3C(=O)c4c(O)cccc4[C@@](C)(O)[C@H]3C[C@@H]12` [TC, tetracycline, reference compound], for which the MIC is 0.31 µg/mL (≈ 0.698 µM) in [2]; 0.63 µg/mL (≈ 1.42 µM) in [3]; 0.31 µg/mL (≈ 0.698 µM) in test [4]; 0.31 µg/mL (≈ 0.698 µM) in test [5]; 3 µg/mL (≈ 6.75 µM) in test [6]; 3 µg/mL (≈ 6.75 µM) in test [7]. In addition, the minimal inhibitory concentration (MIC) in test [8] is 2.5 µg/mL (≈ 5.63 µM); in [9], 0.63 µg/mL (≈ 1.42 µM); in [10] it was 3 µg/mL (≈ 6.75 µM); in [11], 6.13 µg/mL (≈ 13.8 µM); in test [12], 0.31 µg/mL (≈ 0.698 µM); in test [13] it was 0.16 µg/mL (≈ 0.36 µM). Further, the MIC in test [14] was 0.31 µg/mL (≈ 0.698 µM); in test [15] it was 2.5 µg/mL (≈ 5.63 µM).

Consider gentamycin [reference compound], for which the MBEC is 50 µg/mL in test [16]; 50 µg/mL in test [17]; 50 µg/mL in [18]; 25 µg/mL in test [19]; 50 µg/mL in test [20]; 12.5 µg/mL in [21]. Also, the MBEC is 12.5 µg/mL in test [22], 25 µg/mL in test [23] and 25 µg/mL with E. coli (both strains).

`Cc1c(C)c2c(c(C)c1O)CCC(C)(C(=O)O)O2` (centres unmarked) [Trolox, 6-hydroxy-2,5,7,8-tetramethylchroman-2-carboxylic acid, reference compound]: the “LP inhibition (%) ± SD” value in test [24] is on record as 96 ± 2.0%.

As to `C[C@@H]1[C@H](O)[C@@H](C)/C=C/C=C/C=C/C=C/C=C/C=C/C=C/[C@H](O[C@@H]2O[C@H](C)[C@@H](O)[C@H](N)[C@@H]2O)C[C@@H]2O[C@](O)(C[C@@H](O)C[C@@H](O)[C@H](O)CC[C@@H](O)C[C@@H](O)CC(=O)O[C@H]1C)C[C@H](O)[C@H]2C(=O)O` [Amph, amphotericin B, reference compound], the minimal effective concentration in test [25] stood at 25 µg/mL; in the test on Candida kefyr ATCC 2512 [26] it was 25 µg/mL; in test [27], 50 µg/mL; in test [28], 25 µg/mL; in test [29] it was 50 µg/mL. Further, the minimum inhibitory concentration (MIC) (in [30]; in test [31]; with Candida kefyr ATCC 2512 [32]; in test [33]; in test [34]; in [35]) was 0.5 µg/mL (≈ 0.541 µM) each time. Moreover, in [36], the minimal inhibitory concentration (MIC) came to 0.5 µg/mL (≈ 0.541 µM).
